Patent US6413967B1, “Inhibition of novel calcium entry pathway in electrically non-excitable cells acting as an anti-proliferative therapy” (The University of Virginia Patents Foundation, priority 1995, dated 2002)

Tests used:
[1] = test system: [Ca^2+]i in Jurkat T cells; experiment: receptor-stimulated Ca2+ influx in Jurkat T cells (anti-CD3 mAb OKT3); format: cell-based, human; parameters: key to T cell [Ca^2+]i (pre) / T cell [Ca^2+]i: NE: no effect; ND: not determined; conditions: 10 or 30 μM drug; for T cell [Ca^2+]i: effect the same post- and pre- T cell receptor stimulation; for T cell [Ca^2+]i (post): drug added post T cell receptor stimulation; for T cell [Ca^2+]i (pre): drug added pre T cell receptor stimulation
Description: Initially, all drugs are screened using Jurkat T cells incubated with indo-1/AM as outlined below. In the event that there is an effect of the drug on the maximum [Ca^2+]i reached following treatment of the cells with the anti-CD3 mAb […], the drug is evaluated for any effects on the spectral characteristics of indo-1 as outlined in Haverstick and Gray, Mol. Biol. Cell (1993) 4:173. If there is an effect of the drug on the spectral characteristics of indo-1 , the drug is further examined for spectral effects on the combination of fura-red and fluo-3. If there is no effect of the drug on the fura-red/fluo-3 combination, the drug is examined for effects on the maximum [Ca^2+]i reached following OKT3 treatment of cells incubated with 5 μM fura-red and […] as outlined below.
Jurkat cells are incubated in RPMI-1640 plus 5% fbs in the presence of the acetoxymethyl ester of either indo-1 (1 μM) or the combination of fura-red (5 μM) with fluo-3 (1 μM) for one hour at 37° C. Cells are washed three times in buffer A [[…] 4-(2-hydroxyethyl)-1-piperazine ethanesulfonic acid (HEPES), pH 7.4, 3 MM KCl, 1 mM MgCl2, 1 mM CaCl2, 140 mM NaCl, 0.1% glucose] containing 1% fbs and suspended to a final concentration of 1×10^6/ml. Cells are then placed in the 37° C. jacketed cell holder of the SLM 8000C. Antigen receptor engagement is mimicked by the addition of the anti-CD3 monoclonal antibody OKT3 (Gray et al, J. Exp. Med. (1988) 167:1963; Gray et al, J. Immunol. 142:1631). The effect of drug added prior to receptor stimulation or at the plateau phase of Ca^2+ entry is determined as follows:
Prior drug: 10 or 30 μM drug @ 30 seconds, 1 μg/ml OKT3 at 90 seconds
Post drug: 1 μg/ml OKT3 at 30 second, 10 or 30 μM drug @ 120 seconds

[2] = test system: MDA-468 human breast cancer cells; experiment: MDA-468 cell proliferation, tetrazolium dye; format: cell-based; parameters: key to MDA PROLIF: NE: no effect; ND: not determined; conditions: human breast cancer cell proliferation, 48 hours
Description: (§1) The effect of various drugs on the proliferation of Jurkat T cells, MDA-468 human breast cancer cells and PC3 human prostate cancer cells was determined by incubating the cells with the indicated concentrations of drug for 48 hours. The number of viable cells remaining at the end of the incubation period was evaluated using the procedure outlined in Example 4.
(§2) Cells are plated in triplicate in a 96-well flat-bottomed plate (Jurkat: 5e4 cells/well in RPMI-1640 plus 5% fbs; MDA468: 2.5e4 per well in DMEM plus 5% fbs and 11 μg/ml insulin) in the absence (control) or presence of drug at 3, 10, 30, and 100 μM. An additional control of 100 μM drug in RPMI-1640 plus 5% fbs or DMEM plus 5% fbs and 11 μg/Ml insulin with no cells is included with each run to control for possible drug interactions with the dye. The plate is then placed in a 5% CO2 37° C. incubator for 44 to 48 hours. 20 μl of dye solution containing a tetrazolium dye (3-(4,5-dimethylthiazol-2-yl)-5-(3-carboxymethoxyphenyl)-2-(4-sulfophenyl)-2H-tetrazolium, Owen's reagent) plus coupling reagent (phenazine methosulfate) is added to each well, the plate is returned to the incubator, and the absorbance at 490 nm is read using an ELISA plate reader 3 to 4 h (Jurkat cells) or 2 to 3 h (MDA-468 cells) later. All data are presented as percent of control (no drug addition). With this protocol, it is possible to determine the effect of 5 drugs at 4 concentrations in a single 96-well plate as outlined below: […]

[3] = test system: Jurkat T cells; experiment: Jurkat cell proliferation, tetrazolium dye; format: cell-based, human; parameters: key to T cell PROLIF: NE: no effect; ND: not determined; conditions: 48 hours
Description: as §1, §2

[4] = test system: [Ca^2+]i in MDA-468 cells; experiment: EGF receptor-stimulated Ca2+ influx in MDA-468 cells; format: cell-based, human; parameters: key: NE: no effect; ND: not determined; conditions: for MDA [CA^2+]i: effect the same post- and pre- EGF receptor stimulation
Description: MDA468 cells are incubated with either indo-1 or the combination of fura-red/fluo-3 for 1 hour while still adherent in the maintenance flask in DMEM plus 5% fbs and 1 μg/ml insulin. Cells are removed by gentle scraping and washed three times in buffer A containing 1% charcoal stripped fbs (Nelson et al, Br. J. Cancer (1991) 63:933). The cells are then suspended to a final concentration of 1e6/ml and used as above in the SLM. For the human breast cancer cells, Ca^2+ entry is stimulated by the addition of 25 ng/ml EGF, rather than the antibody used above.

SMILES	T cell [Ca^2+]i [1]	MDA PROLIF [2]	T cell [Ca^2+]i (post) [1]	T cell [Ca^2+]i (pre) [1]	T cell PROLIF [3]	MDA [CA^2+]i [4]	MDA [CA^2+]i (pre) ([4]; drug added pre EGF receptor stimulation)
COc1cc(CCO)ccc1O [3-methoxy, 4-hydroxyphenylethanol]	NE	NE					
COc1cc(C(O)C(O)CO)ccc1O (stereo not shown) [3-methoxy, 4-hydroxyphenylglycerol]	NE	NE					
Nc1cc(-c2ccncc2)c[nH]c1=O [amrinone]	NE	NE					
CC(C)COCC(CN(Cc1ccccc1)c1ccccc1)N1CCCC1 (stereo not shown) [bepridil]		↓	↓ (post)	NE (pre)	↓	↑	
CC(NC(C)(C)C)C(=O)c1cccc(Cl)c1 (stereo not shown) [bupropion]	NE	NE			NE		
CN1CCN(C(c2ccccc2)c2ccc(Cl)cc2)CC1 (stereo not shown) [chlorcyclizine]	NE	↓				↑	
C(=C\c1ccccc1)/CN1CCN(C(c2ccccc2)c2ccccc2)CC1 [cinnarizine]	↓	NE			↓	NE	
COc1cc(/C=C/C(=O)CC(=O)/C=C/c2ccc(O)c(OC)c2)ccc1O [curcumin]		NE			↓		
CN1CCN(C(c2ccccc2)c2ccccc2)CC1 [cyclizine]	NE	NE					
O=C1CN(/N=C/c2ccc(-c3ccc([N+](=O)[O-])cc3)o2)C(=O)N1 [datrolene]	NE	NE				NE	
CCN(CC)C(=O)N1CCN(C)CC1 [diethylcarbamazine]	NE	NE			NE	NE	
CC(NCCC(c1ccccc1)c1ccccc1)c1ccccc1 (stereo not shown) [fendiline]	↓	↓			↓	↑	
Fc1ccc(C(c2ccc(F)cc2)N2CCN(C/C=C/c3ccccc3)CC2)cc1 [flunarizine]	↓	NE			↓	NE	
OCCN1CCN(CCCN2c3ccccc3Sc3ccc(C(F)(F)F)cc32)CC1 [fluphenazine]	↓	↓			↓	↓	
OCCOCCN1CCN(C(c2ccccc2)c2ccc(Cl)cc2)CC1 (stereo not shown) [hydroxyzine]	NE	NE			NE		
COC(=O)C1=C(C)NC(C)=C(C(=O)OC(C)C)C1c1cccc2nonc12 (stereo not shown) [isradipine]	↓	NE			NE		
Cc1cccc(C)c1NC(=O)CN1CCN(CCCC(c2ccc(F)cc2)c2ccc(F)cc2)CC1 [lidoflazine]	↓	(↓)			↓		
Cc1cccc(CN2CCN(C(c3ccccc3)c3ccc(Cl)cc3)CC2)c1 (stereo not shown) [meclizine]		NE	↓ (post)	NE (pre)	(↓)		
CN1CCN2c3ccccc3Cc3ccccc3C2C1 (stereo not shown) [mianserin]	NE	NE			NE		
COC(=O)C1=C(C)NC(C)=C(C(=O)OCCN(C)Cc2ccccc2)C1c1cccc([N+](=O)[O-])c1 (stereo not shown) [nicardipine]						NE	
O=C(O)c1cccnc1Nc1cccc(C(F)(F)F)c1 [niflumic acid]		NE	↓ (post)	NE (pre)	(↓)		
C1CCC(C(CC2CCCCN2)C2CCCCC2)CC1 (stereo not shown) [perhexiline]		↓	↑ (post)	↓(pre)	↓	↑	
CCn1cc(C(=O)O)c(=O)c2cnc(N3CCNCC3)nc21 [pipenidic acid]	NE	NE			NE		
c1ccc2nc(N3CCNCC3)ccc2c1 [quipazine]	NE	NE					
COc1ccc2cc1Oc1ccc(cc1)C[C@H]1c3cc(c(OC)cc3CCN1C)Oc1c(OC)c(OC)cc3c1[C@H](C2)N(C)CC3 [tetrandrine, 6,6′,7,12-tetramethoxy-2,2′-dimethyl-baman]				NE (pre)			NE (pre)
Cc1nc(C)c(C)nc1C [tetranethylpyrazine]	NE	NE					
O=c1n(CCCN2CCN(c3cccc(Cl)c3)CC2)nc2ccccn12 [trazodone]	NE	NE			NE		
